How the values were obtained:
Assay type in all cases: functional
[1] = system: THP-1; test: Inhibition of LPS-stimulated TNFalpha secretion in human THP1 cells at 10 uM after 24 hrs by ELISA; conditions: THP-1, 24 h
[2] = system: THP-1; test: Inhibition of LPS-stimulated TNFalpha secretion in human THP1 cells at 50 uM after 24 hrs by ELISA; conditions: THP-1, 24 h
[3] = system: PBMC; test: Inhibition of LPS-stimulated TNFalpha secretion in human PBMC cells at 10 uM after 24 hrs by ELISA
[4] = system: PBMC; test: Inhibition of LPS-stimulated TNFalpha secretion in human PBMC cells at 50 uM after 24 hrs by ELISA

| SMILES | inhibition at 10 µM [1] [%] | inhibition at 50 µM [2] [%] | inhibition at 10 µM [3] [%] | inhibition at 50 µM [4] [%] |
| --- | --- | --- | --- | --- |
| CN(CCO)c1c(-c2ccccc2)c2ccccc2[nH]c1=O | 0 | 21 |  |  |
| CN(C)c1c(-c2ccccc2)c2ccccc2[nH]c1=O | 0 | 83 |  |  |
| CNc1c(-c2ccccc2)c2ccccc2[nH]c1=O | 50 | 97 | 36 | 67 |
| CCc1c(-c2ccccc2)c2ccccc2[nH]c1=O | 3 | 80 | 32 | 50 |
| CSc1c(-c2ccccc2)c2ccccc2[nH]c1=O | 49 | 93 | 78 | 95 |
| COCCN(CCOC)c1c(-c2ccccc2)c2ccccc2[nH]c1=O | 0 | 59 |  |  |
| CSc1c(-c2ccccc2)c2cc([N+](=O)[O-])ccc2[nH]c1=O |  |  | 86 | 94 |
| CN(C)C(=O)N1CCN(c2c(-c3ccccc3)c3ccccc3[nH]c2=O)CC1 | 21 | 43 |  |  |
| COc1c(-c2ccccc2)c2ccccc2[nH]c1=O | 7 | 10 | 24 | 67 |
| Nc1c(-c2ccccc2)c2ccccc2[nH]c1=O |  |  | 29 | 79 |

— ChEMBL document CHEMBL1137459, “Synthesis of 3-O-methylviridicatin analogues with improved anti-TNF-alpha properties” (2007)
